In patent US10729718B2, “Substances containing AuCs and preparation method and use thereof” (Shenzhen Profound-View Pharma Tech Co., Ltd, priority 2016, dated 2020):

Assays:
Aβ(1-40) [1] = target: T1, Aβ(1-40) (Homo sapiens, UniProt P05067); test: In vitro Aβ aggregation kinetic experiment (ThT fluorescent labeling method); format: biochemical; conditions: ThT fluorescence, 20 μM Aβ(1-40), 37° C., up to 20.0 ppm (L-NIBC 1.0 and 10.0 ppm)
T1 construct: Freeze-dried powder of amyloid polypeptide Aβ(1-40) (Invitrogen Corp.); purchased Invitrogen Corp
Description: Thioflavin T (abbreviation: ThT) is a dye specifically for dyeing amyloid fibers. […] When it encounters amyloid polypeptides or proteins with a fiber structure, it will immediately couple with the amyloid polypeptides or proteins and its fluorescence intensity will increase exponentially. Just because of this property, ThT is widely used as a marker to monitor amyloidosis of peptides or proteins. The fibrosis process of Aβ(1-40) is also a nucleation-controlled polymerization process. Therefore, the growth curve of Aβ(1-40) fiber measured by ThT fluorescent labeling method is mainly divided into three stages: Initial stage, growth stage and platform stage. […] All the Aβ(1-40) PBS solutions for the experiments were prepared freshly. […] The samples were incubated continuously in a 96-well plate at 37° C. by ThT fluorescent labeling method, and monitored the fluorescence intensity by microplate reader once every 10 minutes.

Aβ(1-40) [2] = target: T1, Aβ(1-40); test: AFM topography of Aβ(1-40) after coincubation for 48 h; format: biochemical; conditions: coincubated with Aβ(1-40) for 48 h
Experimental: Panel A is the AFM topography after Aβ(1-40) was incubated alone for 48 h. Panel B is an AFM topography after Aβ(1-40) was coincubated with L-NIBC for 48 h. Panel C and panel D are AFM topographies after Aβ(1-40) was coincubated with gold nanoparticles with an average particle size of 6.0 nm and 3.6 nm respectively (modified with L-NIBC) for 48 h. And panel E is an AFM topography after Aβ(1-40) was coincubated with AuCs in an average particle size of 1.8 nm (modified with L-NIBC) for 48 h.

[3] = system: SH-SY5Y neuroblastoma cell line; test: Aβ induced AD cell model, cell viability by CCK-8 method; format: cell-based; conditions: 0.01-20 ppm (L-NIBC 20 ppm); 20 μM Aβ(1-40), 24 h
Experimental: The cell viability was used as an index in the experiment of this embodiment. […] The cells used in the experiment were SH-SY5Y neuroblastoma cell line. […] Specific method:
1) SH-sy5y cells (cells had passed to the sixth generation) in logarithmic growth phase were diluted with complete medium (MEM+10% FBS+1% penicillin-streptomycin) to get a cell suspension in a density of 5×10^4/mL. The suspension was inoculated 200 μL per well into a 96-well plate, and cultivated in an incubator with 5% CO2 at 37° C. A sample was added when the cells attached to the wells.
2) 100 μL ligand-modified AuCs samples or ligand-modified gold nanoparticles samples, at different particle sizes and at concentrations of 0.04 ppm, 0.4 ppm, 4 ppm, 20 ppm, 40 ppm and 80 ppm respectively, which were dissolved by maintenance medium (MEM+2% FBS+1% penicillin-streptomycin) were added into the incubated suspension obtained from Step 1). After incubating in the incubator for 2 h, 100 μL 80 μM Aβ(1-40) was added, and then the mixture was incubated in the incubator for 24 h. […] The culture medium was removed, maintenance medium (MEM) containing 10% CCK-8 at 100 μL/well was added and was incubated for 4 h, the absorbance of each well at 450 nm was measured to reflect the prevention and treatment effects of ligand-modified AuCs on Aβ(1-40) lesion.

α-syn = target: T2, α-syn (Homo sapiens, UniProt P37840); test: In vitro α-syn aggregation kinetics (ThT fluorescent labeling method); format: biochemical; conditions: ligand only (L-NIBC 1.0 and 10.0 ppm), 35 μM α-syn, 37° C.
T2 construct: purchased Bachem Corp
Description: Thioflavin T (abbreviation: ThT) is a dye for dyeing amyloid fibers specifically. […] When it encounters amyloid polypeptide or protein with a fiber structure, it will immediately couple with the amyloid polypeptides or proteins and its fluorescence intensity will increase exponentially. For this reason, ThT is widely used as markers to monitor amyloidosis of peptides or proteins. This embodiment utilizes ThT fluorescent labeling method to monitor the kinetics process of fibrosis aggregation of α-syn with the existence of AuCs. The specific experiment method was as follows:
Pretreatment of α-syn monomers: Freeze-dried powder (Bachem Corp.) of α-syn was dissolved in HFIP to obtain a 1 g/L α-syn solution. The solution was incubated at room temperature for 2-4 h after sealing, then blowed to dry HFIP by high-purity nitrogen in a fume hood. […]
Sample preparation and detection: Ligand-modified AuCs in different concentrations listed in Table 1 were added to 35 μM α-syn PBS solutions respectively, and incubated continuously in a 96-well plate at 37° C., by ThT fluorescent labeling method, and were monitored the fluorescence intensity by microplate reader once every 10 minutes. The kinetic process of α-syn aggregation was characterized through the change of fluorescence intensity of ThT. […]

SH-sy5y cells = test: MPP+ induced PD cell (SH-sy5y) model, Experiment 2, CCK-8; format: cell-based; conditions: 1 mM MPP^+ and ligand 20 ppm, 24 h; model control 65.1±4.0%

T1 sequence (P05067 672-711 limits assumed): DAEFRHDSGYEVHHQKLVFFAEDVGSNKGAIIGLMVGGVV

effect on Aβ(1-40) amyloidosis / aggregation kinetics (Aβ(1-40) [1]): no obvious effect
formation of Aβ(1-40) fibers (AFM topography) (Aβ(1-40) [2]): no obvious effect
effect on kinetics of α-syn aggregation (α-syn): did not have an obvious effect
Structure (SMILES): CC(C)C(=O)N[C@@H](CS)C(=O)O [L-NIBC, N-isobutyryl-L-cysteine]
effect on cell viability of Aβ induced AD cell model [3]: did not improve cell viability
cell viability of the ligand control group (SH-sy5y cells): 61.5±3.8%
